Laboratory results taken from patent publication US20170339955A1, “Substituted N-(tetrazol-5-yl)- and N-(triazol-5-yl)arylcarboxamide compounds and their use as herbicides” (BASF SE, priority 2012, published 2017).

What was measured:
Type in all cases: in vivo
[1] = system: Abutilon theophrasti (velvetleaf); experiment: Greenhouse post-emergence treatment of Abutilon theophrasti (velvetleaf); settings: application rate 1000 g/ha, scale 0 (no damage) to 100 (complete destruction)
Source text: (§1) The culture containers used were plastic flowerpots containing loamy sand with approximately 3.0% of humus as the substrate. The seeds of the test plants were sown separately for each species.
(§2) For the post-emergence treatment, the test plants were first grown to a height of 3 to 15 cm, depending on the plant habit, and only then treated with the active ingredients which had been suspended or emulsified in water. For this purpose, the test plants were either sown directly and grown in the same containers, or they were first grown separately as seedlings and transplanted into the test containers a few days prior to treatment.
(§3) Depending on the species, the plants were kept at 10-25° C. or 20-35° C. The test period extended over 2 to 4 weeks. During this time, the plants were tended, and their response to the individual treatments was evaluated.
(§4) Evaluation was carried out using a scale from 0 to 100. 100 means no emergence of the plants, or complete destruction of at least the aerial moieties, and 0 means no damage, or normal course of growth. A good herbicidal activity is given at values of at least 70 and a very good herbicidal activity is given at values of at least 85.

[2] = system: Amaranthus retroflexus L. (pigweed); experiment: Greenhouse pre-emergence treatment of Amaranthus retroflexus L. (pigweed); settings: application rate 1000 g/ha, scale 0 (no damage) to 100 (no emergence/complete destruction)
Source text: as §1
(§5) For the pre-emergence treatment, the active ingredients, which had been suspended or emulsified in water, were applied directly after sowing by means of finely distributing nozzles. The containers were irrigated gently to promote germination and growth and subsequently covered with transparent plastic hoods until the plants had rooted. This cover caused uniform germination of the test plants, unless this has been impaired by the active ingredients.
as §3, §4

[3] = system: Amaranthus retroflexus L. (pigweed); experiment: Greenhouse post-emergence treatment of Amaranthus retroflexus L. (pigweed); settings: application rate 1000 g/ha, scale 0 (no damage) to 100 (complete destruction)
Source text: as §1, §2, §3, §4

[4] = system: Echinochloa crus-galli (barnyard grass); experiment: Greenhouse post-emergence treatment of Echinochloa crus-galli (barnyard grass); settings: application rate 1000 g/ha, scale 0 (no damage) to 100 (complete destruction)
Source text: as §1, §2, §3, §4

[5] = system: Abutilon theophrasti (velvetleaf); experiment: Greenhouse pre-emergence treatment of Abutilon theophrasti (velvetleaf); settings: application rate 1000 g/ha, scale 0 (no damage) to 100 (no emergence/complete destruction)
Source text: as §1, §5, §3, §4

Compound	damage [%] [1] [%]	damage [%] [2] [%]	damage [%] [3] [%]	damage [%] [4] [%]	damage [%] [5] [%]
Cn1ncnc1NC(=O)c1c(F)cc(Cl)cc1Cl [I.A-1]	100	80	100		
Cn1ncnc1NC(=O)c1cc(F)c(Cl)cc1Cl [I.A-5]	75		85	90	
Cn1ncnc1NC(=O)c1c(F)cc(Cl)c(S(C)(=O)=O)c1Cl [I.A-41, 2,4-dichloro-6-fluoro-3-methylsulfonyl-n-(2-methyl-1,2,4-triazol-3-yl)benzamide]	100		100		95
Cn1ncnc1NC(=O)c1c(F)ccc(Cl)c1Cl [I.A-1441]	75	100	100		
Cn1nnnc1NC(=O)c1cc(F)c(Cl)cc1Cl [V.A-5]	100	100	100		
CSc1c(Cl)cc(F)c(C(=O)Nc2nnnn2C)c1Cl [V.A-1442, 2,4-dichloro-6-fluoro-3-methylsulfanyl-n-(1-methyltetrazol-5-yl)benzamide]	100		100		100
Cn1nnnc1NC(=O)c1c(F)cc(Cl)c(S(C)(=O)=O)c1Cl [V.A.-41, 2,4-dichloro-6-fluoro-3-methylsulfonyl-n-(1-methyltetrazol-5-yl)benzamide]	100	100	100		
